Reference: patent EP1105728B1, “MODULATING MULTIPLE LINEAGE KINASE PROTEINS” (CEPHALON, INC., priority 1998, dated 2000)
Read-outs that look alike come from different tables or passages of the source.

Assays:
[1] = test system: dorsal root ganglion sensory neurons (DRG); test: Survival of chick embryonic dorsal root ganglion sensory neurons; type: cell-based
Experimental: Paravertebral sympathetic ganglia (SG; embryonal day 12 (E12)), dorsal root ganglia (DRG;E9), and ciliary ganglia (CG;E8) were dissected from chick embryos at the indicated embryonic day as described in Lindsay, et al., Dev. Biol., 1985, 112, 319-328, which is incorporated herein by reference in its entirety. After trypsinization and dissociation, the nerve cell suspensions were plated onto polyomithine-laminin-coated culture dishes in Ham's F14 culture medium, supplemented with 10% horse serum. Immediately after plating, survival factors were added at the following concentrations: Nerve growth factor (NGF), 20 ng/ml; ciliary neutrophic factor (CNTF), 10 ng/ml. The cultures were maintained at 37° and 5% CO2 in a humidified environment.
Neurons were plated in 35 mm culture dishes with grids (Nunc). […] Cell survival was confirmed by vital staining with trypan blue (not shown).

chick motoneurons = test: Survival of chick embryonic motoneurons; type: cell-based
Experimental: Motoneurons (embryonic day 5.5) were isolated with an immunological method according to the procedure set forth in Bloch-Gallego, et al., Development, 1991, 111, 221-232, which is incorporated herein by reference in its entirety, with modifications as described in Weng, et al., NeuroReport, 1996, 7, 1077-1081, which is incorporated herein by reference in its entirety. Purified motoneurons were seeded onto 35 mm tissue culture dishes (Nunc) pre-coated with poly-DL-omithine and laminin (1 µg/ml, Upstate Biotech). […] Muscle extract was supplemented at 30 µg/ml. Compound III-3 was prepared as a 4mM stock solution in DMSO and stored protected from light at 4°C. The final concentration of DMSO in treated and control cultures was 0.125%.
Neurons were plated in 35 mm culture dishes with grids (Nunc). Selected areas of each dish comprising together about 10% of the surface scanned for the presence of phase bright cells immediately after plating and again after 48 h to assess survival percentages. Cell survival was confirmed by vital staining with trypan blue (not shown).

[2] = test system: substantia nigra tyrosine hydroxylase immunoreactive neurons; test: MPTP model: substantia nigra tyrosine hydroxylase immunoreactive neurons; type: in vivo, mice; conditions: MPTP 40 mg/kg; systemically administered (Fig. 22a)
Experimental: (§1) MPTP was administered at a dose (40 mg/kg) that produces loss of striatal dopaminergic terminals and cell bodies in the substantia nigra. Tyrosine hydroxylase was used as a marker for dopamenergic nerve terminals in the substantia nigra. […] Since Compound III-3 is a known inhibitor of MLK3, activation of a downstream substrate of MLK3 was measured in MPTP- treated mice. Levels of phosphorylated MKK4 were measured using a phospho-MKK4 specific antibody (New England Biolabs, Beverly, MA) that recognizes the monophosphorylated form of MKK4 by either immunoblot (Fig. 22b) or ELISA (Fig. 22c). MPTP administration elevated levels of phosphorylated MKK4 in the substantia nigra by up to 5 fold over control levels (Fig. 22b). Peak elevations occurred 4 hrs after administration ofMPTP and coincided with peak CNS levels of MPP^+.

MKK4 = test: MPTP model: phosphorylated MKK4 in the substantia nigra (immunoblot, ELISA); type: in vivo, mice; conditions: pretreatment; Compound III-3 1 mg/kg (Fig. 22c)
Experimental: as §1

IL-1 = test: Induction of IL-1 by LPS in THP-1 cells (ELISA); type: cell-based
Experimental: THP-1 cells were grown in RPMI 1640 medium supplemented with 10% fetal bovine serum. LPS (E.coli serotype 0111.B4, TCA extracted) was purchased from Sigma and dissolved in PBS. ELISA kits for assaying IL-1 and TNF-α were purchased from Boerhinger-Mannheim and assays on THP-1 culture medium were performed as directed by the manufacturer. Standard curves according to directions were obtained with each assay.
Experiments were performed in 12 well culture plates with either 1 or 2 ml of THP-1 cells at 4 X 10^5 cells/ml. IL-1 and TNF-α were induced by the addition of LPS to the culture medium and the medium collected at various times thereafter for cytokine assay. Cells were removed by centrifugation and the supernatants frozen at -70°C until assay. To minimize costs experiments were performed in duplicate cultures and the duplicate supernatants were pooled after centrifugation. Each pooled supernatant was assayed in duplicate. Stock solutions of indolo- and fused pyrrolocarbazoles in 100% DMSO were diluted to the desired concentrations in either medium containing 10% fetal bovine serum or in medium containing 0.5 mg/ml BSA. Unless otherwise stated, compounds were added to the THP-1 cells 1 hr prior to the addition of LPS.

IL-2 = test: Induction of IL-2 in Jurkat cells by anti CD3 and anti CD28 antibodies (ELISA); type: cell-based; conditions: Homo sapiens
Experimental: Jurkat cells were grown in RPMI 1640 medium supplemented with 10% fetal bovine serum. TNF-α was from Promega and anti CD3 and anti CD28 antibodies were from Pharmigen. Jurkat experiments were done in 200 µl in a 96 well plate. IL-2 was measured with an ELISA kit purchased from Boehringer Mannheim. The antibodies to CD3 and CD28 were allowed to bind to the plastic of the 96 well plate (18 hr in PBS) prior to addition of the Jurkat Cells. Cells were treated with compounds 1 hr prior to adding to the antibody coated plate. Antibodies to CD3 and CD28 were used to activate the T cell receptor and induce IL-2. I1-2 was released from the Jurkat cells between 6 hr and 24 hr after initiation of induction (Fig. 23A). No IL-2 was made constitutively (Fig. 23A CNT). The effect of Compound III-3 (1 hr treatment with Compound III-3 prior to induction) on IL-2 induction was next assessed (Fig. 23B). A Compound III-3 concentration of 500 nM inhibited IL-2 induction by greater than 80% (Fig. 23B).

trkA tyrosine kinase = trkA tyrosine kinase (Homo sapiens, UniProt P04629); conditions: Maroney et al.; Kaneko et al.; cited from earlier work
Sequence of trkA tyrosine kinase (P04629 33-796): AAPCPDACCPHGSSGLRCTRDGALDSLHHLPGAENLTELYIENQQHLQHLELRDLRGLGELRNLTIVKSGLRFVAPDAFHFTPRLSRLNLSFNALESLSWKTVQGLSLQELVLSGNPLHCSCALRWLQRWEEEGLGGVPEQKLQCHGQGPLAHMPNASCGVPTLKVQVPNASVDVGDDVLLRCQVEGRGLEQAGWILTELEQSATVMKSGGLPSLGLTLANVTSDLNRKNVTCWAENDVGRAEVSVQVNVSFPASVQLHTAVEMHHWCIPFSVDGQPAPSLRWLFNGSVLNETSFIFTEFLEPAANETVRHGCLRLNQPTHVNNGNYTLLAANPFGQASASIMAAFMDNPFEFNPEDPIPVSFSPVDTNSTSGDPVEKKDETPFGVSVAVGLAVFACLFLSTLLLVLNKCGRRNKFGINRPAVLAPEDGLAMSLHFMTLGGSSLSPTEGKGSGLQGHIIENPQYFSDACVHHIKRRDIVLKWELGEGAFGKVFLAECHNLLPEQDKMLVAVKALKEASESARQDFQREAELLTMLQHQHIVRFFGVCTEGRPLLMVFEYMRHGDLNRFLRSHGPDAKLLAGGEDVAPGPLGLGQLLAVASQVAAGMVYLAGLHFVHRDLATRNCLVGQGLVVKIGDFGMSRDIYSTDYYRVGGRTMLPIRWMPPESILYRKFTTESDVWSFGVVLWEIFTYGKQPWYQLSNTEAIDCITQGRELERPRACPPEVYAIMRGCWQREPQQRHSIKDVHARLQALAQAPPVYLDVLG

## CCSCc1ccc2c(c1)c1c3c(c4c5cc(CSCC)ccc5n5c4c1n2C1CC(O)(C(=O)OC)C5(C)O1)CNC3=O (stereo not shown) [III-3]
[1]; 10% serum (Fig. 16)
  concentration at which the survival effect reached a plateau: around 1 µM
[1]; after four days
  DRG survival: 52%
Chick motoneurons; after 48 h, Compound III-3 300 nM, serum-free conditions, muscle extract 30 µg/ml
  motoneurons survived: 79%
Chick motoneurons; after four days in culture
  motoneurons alive: 56%
Chick motoneurons; serum-free conditions, higher concentrations showed a progressively reduced effect
  concentration of maximal survival effect: 300 nM
[2]
  loss of substantia nigra tyrosine hydroxylase immunoreactive neurons after MPTP lesion: attenuated the loss
MKK4
  MPTP-mediated MKK4 phosphorylation: partially inhibited
IL-1; Homo sapiens, THP-1, THP-1 cells, medium containing 10% fetal bovine serum, read-out: IC50 inhibition of the induction of IL-1
  IC50: 267 nM
IL-1; Homo sapiens, THP-1, THP-1 cells, serum-free medium (500 µg/ml BSA), cytokine not named, read-out: IC50 in serum-free medium
  IC50: 23 nM
IL-1; THP-1 cells, medium containing 10% fetal bovine serum, read-out: IC50 inhibition of the induction of IL-1
  IC50: 269 nM
IL-2; Jurkat, 500 nM, 1 hr treatment prior to induction (Fig. 23B)
  inhibition at 0.5 µM: > 80%
IL-2; Jurkat cells (Fig. 23C)
  IC50: 139 nM
trkA tyrosine kinase
  inhibitory activity against trkA tyrosine kinase: did not exhibit inhibitory activity
